The source of these data is ChEMBL document CHEMBL4376848, “Synthesis and discovery of triazolo-pyridazine-6-yl-substituted piperazines as effective anti-diabetic drugs; evaluated over dipeptidyl peptidase-4 inhibition mechanism and insulinotropic activities” (Eur J Med Chem, 2020).

One may read the IC50 as the midpoint of a concentration-inhibition curve. In general, inhibition refers to the drop in the measured response relative to a control, in per cent.

Series [1] can be described thus: Antioxidant activity assessed as inhibition of H2O2 radical scavenging activity incubated for 60 mins by UV-spectrophotometric method. Format: functional.
Series [2] in a line: Antioxidant activity assessed as inhibition of H2O2 radical scavenging activity incubated for 60 mins by UV-spectrophotometric method relative to control. Format: functional.
In series [3] the test system is INS1(832/13). The series can be described thus: cells. Conditions: Rattus norvegicus, INS-1 832/13, 2 h.
Description: Antidiabetic activity in glucose-treated rat INS1(832/13) cells assessed as increase in insulin release in presence of 3 mM glucose measured after 2 hrs by radioimmunoassay
Series [4] relates to INS1(832/13). Description: Cytotoxicity against rat INS1(832/13) cells assessed as cell viability at 3.5 nM in RPMI medium incubated for over night followed by insulin addition by Alamar Blue assay. Conditions: 0.0035 µM. In kind it is cell-based. A general note: Alamar Blue is a resazurin reagent that responds to reducing activity.
Series [5] deals with INS1(832/13). The series can be described thus: Cytotoxicity against rat INS1(832/13) cells assessed as cell viability upto 3 nM in RPMI medium incubated for over night followed by insulin addition by Alamar Blue assay. In kind it is cell-based.
Series [6] deals with INS1(832/13). The series can be described thus: Antidiabetic activity in glucose-treated rat INS1(832/13) cells assessed as increase in insulin release at 1 ug/ml in presence of 3 mM glucose measured after 2 hrs by radioimmunoassay (reference value: 52.25 +/- 2.15 %). Format: functional.
The subject of series [7] is INS1(832/13). Description: Antidiabetic activity in glucose-treated rat INS1(832/13) cells assessed as increase in insulin release at 10 ug/ml in presence of 3 mM glucose measured after 2 hrs by radioimmunoassay (reference value: 52.25 +/- 2.15 %). Format: functional.

Converted amounts (≈) assume the structure as drawn.

As to `O=C1O[C@H]([C@@H](O)CO)C(O)=C1O` [ASCORBIC ACID], in series [1], the half-inhibitory concentration (IC50) came out at 25.3 µg/mL (≈ 144 µM).
With `COc1ccc(N2CCN(c3ccc4nnc(-c5cccc(C)c5)n4n3)CC2)cc1`, in series [2], the inhibition amounted to 75.6%. Further, the half-inhibitory concentration (IC50) in series [1] was found to be 45.9 µg/mL (≈ 115 µM).
As for `Cc1cccc(-c2nnc3ccc(N4CCN(Cc5ccc(F)cc5)CC4)nn23)c1`, the IC50 with INS1(832/13) [3] was 3.9 nM; in series [1], 2 µg/mL (≈ 4.97 µM). In addition, the inhibition in series [2] was found to be 91.2%.
As for `Cc1cccc(-c2nnc3ccc(N4CCN(CCOCCO)CC4)nn23)c1`, the inhibition in series [2] turned out to be 83.2%. In addition, in series [1], the IC50 was 16.8 µg/mL (≈ 43.9 µM).
For the compound `CCOC(=O)N1CCN(c2ccc3nnc(-c4cccc(C)c4)n3n2)CC1`, the Activity result with INS1(832/13) [4] is “Toxic”; in the series on INS1(832/13) [5] it was “Non-Toxic”. The results for the IC50 (with INS1(832/13) [3]; in series [1]) were 2.8 nM and 1 µg/mL (≈ 2.73 µM), respectively. In addition, in series [2], the inhibition was determined as 96.8%.
Take `Cc1cccc(-c2nnc3ccc(N4CCN(Cc5ccccc5)C(C(=O)O)C4)nn23)c1` (stereo unspecified): in series [2], the inhibition was determined as 69.4%. In series [1], the IC50 turned out to be 85.5 µg/mL (≈ 200 µM).
Compound `CCOc1cc(CC(=O)N[C@@H](CC(C)C)c2ccccc2N2CCCCC2)ccc1C(=O)O` [REPAGLINIDE] displayed an IC50 with INS1(832/13) [3] of 1250 nM. Moreover, the “inhibition (INH)” value with INS1(832/13) [6] turned out to be 96.16%; with INS1(832/13) [7], 99.05%.
Consider `Cc1cccc(-c2nnc3ccc(N4CCN(C(=O)c5ccccc5)CC4)nn23)c1`, for which the Activity result is on record as “Toxic” in the series on INS1(832/13) [4] and “Non-Toxic” in the series on INS1(832/13) [5]. Besides, the IC50 came to 1.5 nM in the series with INS1(832/13) [3] and 2.25 µg/mL (≈ 5.65 µM) in series [1]. For the same compound, the inhibition in series [2] was found to be 94.1%.
For the compound `Cc1cccc(-c2nnc3ccc(N4CCN(C(c5ccccc5)c5ccccc5)CC4)nn23)c1`, the half-maximal inhibitory concentration (IC50) with INS1(832/13) [3] worked out at 4.8 nM; in series [1], 1.75 µg/mL (≈ 3.8 µM). In series [2], the inhibition came out at 93.2%.
For the compound `Cc1cccc(-c2nnc3ccc(N4CCN(S(C)(=O)=O)CC4)nn23)c1`, in series [2], the inhibition was determined as 84.2%. The IC50 in series [1] is 10.8 µg/mL (≈ 29 µM).
For `Cc1cccc(-c2nnc3ccc(N4CCN(Cc5ccccc5)CC4)nn23)c1`, in that order: 86.2% and 13.4 µg/mL (≈ 34.9 µM).
For `Cc1cccc(-c2nnc3ccc(N4CCN(C(=O)OC(C)(C)C)C(Cc5ccccc5)C4)nn23)c1` (stereo unspecified) the same measures were 80.1% and 15.8 µg/mL (≈ 32.6 µM).
With `CC(=O)N1CCN(c2ccc3nnc(-c4cccc(C)c4)n3n2)CC1`, the inhibition in series [2] was 78.2%. In addition, the half-inhibitory concentration (IC50) in series [1] was determined as 28.6 µg/mL (≈ 85 µM).
For `Cc1cccc(-c2nnc3ccc(N4CCN(CCN)CC4)nn23)c1` the same measures were 78.2% and 25.4 µg/mL (≈ 75.3 µM).
